20 substances from the OligoGym collection can be followed below.

Oligonucleotides are given in HELM: sugar(base)linkage, 5' to 3'; d 2'-deoxyribose, r ribose, m 2'-O-methylribose, p phosphate. ss, as = sense and antisense strand
Also: test concentration or dose not given here.

For this series, the target named is SOST. The series can be described thus: reporter assay of Huesken 2005. Particulars: siRNA. (In general: Reporter assays use an easily measured gene product as a stand-in for the process of interest.)
“RNA1{r(U)p.r(G)p.r(C)p.r(G)p.r(G)p.r(C)p.r(C)p.r(C)p.r(G)p.r(G)p.r(C)p.r(G)p.r(C)p.r(G)p.r(C)p.r(C)p.r(U)p.r(G)p.r(C)p.d(T)p.d(T)}|RNA2{r(G)p.r(C)p.r(A)p.r(G)p.r(G)p.r(C)p.r(G)p.r(C)p.r(G)p.r(C)p.r(C)p.r(G)p.r(G)p.r(G)p.r(C)p.r(C)p.r(G)p.r(C)p.r(A)p.d(C)p.d(T)}$$$RNA1{StrandType:ss}|RNA2{StrandType:as}$” returned a normalised inhibition (eCFP-eYFP dual reporter) of 52.1%.
The figure for “RNA1{r(C)p.r(C)p.r(U)p.r(C)p.r(C)p.r(A)p.r(C)p.r(C)p.r(G)p.r(G)p.r(A)p.r(G)p.r(C)p.r(U)p.r(G)p.r(G)p.r(A)p.r(G)p.r(A)p.d(T)p.d(T)}|RNA2{r(U)p.r(C)p.r(U)p.r(C)p.r(C)p.r(A)p.r(G)p.r(C)p.r(U)p.r(C)p.r(C)p.r(G)p.r(G)p.r(U)p.r(G)p.r(G)p.r(A)p.r(G)p.r(G)p.d(C)p.d(T)}$$$RNA1{StrandType:ss}|RNA2{StrandType:as}$” is 68.8%; for “RNA1{r(G)p.r(U)p.r(G)p.r(G)p.r(U)p.r(G)p.r(A)p.r(G)p.r(G)p.r(C)p.r(G)p.r(C)p.r(C)p.r(G)p.r(C)p.r(G)p.r(C)p.r(G)p.r(C)p.d(T)p.d(T)}|RNA2{r(G)p.r(C)p.r(G)p.r(C)p.r(G)p.r(C)p.r(G)p.r(G)p.r(C)p.r(G)p.r(C)p.r(C)p.r(U)p.r(C)p.r(A)p.r(C)p.r(C)p.r(A)p.r(C)p.d(C)p.d(G)}$$$RNA1{StrandType:ss}|RNA2{StrandType:as}$” it is 65.2%; for “RNA1{r(C)p.r(C)p.r(A)p.r(C)p.r(C)p.r(G)p.r(G)p.r(A)p.r(G)p.r(C)p.r(U)p.r(G)p.r(G)p.r(A)p.r(G)p.r(A)p.r(A)p.r(C)p.r(A)p.d(T)p.d(T)}|RNA2{r(U)p.r(G)p.r(U)p.r(U)p.r(C)p.r(U)p.r(C)p.r(C)p.r(A)p.r(G)p.r(C)p.r(U)p.r(C)p.r(C)p.r(G)p.r(G)p.r(U)p.r(G)p.r(G)p.d(A)p.d(G)}$$$RNA1{StrandType:ss}|RNA2{StrandType:as}$” it is 86.7%.
Then “RNA1{r(A)p.r(A)p.r(G)p.r(G)p.r(A)p.r(C)p.r(U)p.r(U)p.r(C)p.r(G)p.r(G)p.r(G)p.r(A)p.r(C)p.r(C)p.r(G)p.r(A)p.r(G)p.r(G)p.d(T)p.d(T)}|RNA2{r(C)p.r(C)p.r(U)p.r(C)p.r(G)p.r(G)p.r(U)p.r(C)p.r(C)p.r(C)p.r(G)p.r(A)p.r(A)p.r(G)p.r(U)p.r(C)p.r(C)p.r(U)p.r(U)p.d(G)p.d(A)}$$$RNA1{StrandType:ss}|RNA2{StrandType:as}$”, with 58.7%; and “RNA1{r(U)p.r(G)p.r(C)p.r(A)p.r(A)p.r(G)p.r(C)p.r(G)p.r(C)p.r(C)p.r(U)p.r(C)p.r(A)p.r(C)p.r(C)p.r(C)p.r(G)p.r(C)p.r(U)p.d(T)p.d(T)}|RNA2{r(A)p.r(G)p.r(C)p.r(G)p.r(G)p.r(G)p.r(U)p.r(G)p.r(A)p.r(G)p.r(G)p.r(C)p.r(G)p.r(C)p.r(U)p.r(U)p.r(G)p.r(C)p.r(A)p.d(C)p.d(T)}$$$RNA1{StrandType:ss}|RNA2{StrandType:as}$”, with 66.2%.
“RNA1{r(C)p.r(G)p.r(U)p.r(G)p.r(U)p.r(C)p.r(C)p.r(G)p.r(A)p.r(G)p.r(U)p.r(A)p.r(C)p.r(A)p.r(G)p.r(C)p.r(U)p.r(G)p.r(C)p.d(T)p.d(T)}|RNA2{r(G)p.r(C)p.r(A)p.r(G)p.r(C)p.r(U)p.r(G)p.r(U)p.r(A)p.r(C)p.r(U)p.r(C)p.r(G)p.r(G)p.r(A)p.r(C)p.r(A)p.r(C)p.r(G)p.d(T)p.d(C)}$$$RNA1{StrandType:ss}|RNA2{StrandType:as}$” registered a normalised inhibition (eCFP-eYFP dual reporter) of 54.8%.
“RNA1{r(U)p.r(U)p.r(C)p.r(A)p.r(C)p.r(C)p.r(C)p.r(G)p.r(C)p.r(U)p.r(A)p.r(C)p.r(G)p.r(U)p.r(G)p.r(A)p.r(C)p.r(C)p.r(G)p.d(T)p.d(T)}|RNA2{r(C)p.r(G)p.r(G)p.r(U)p.r(C)p.r(A)p.r(C)p.r(G)p.r(U)p.r(A)p.r(G)p.r(C)p.r(G)p.r(G)p.r(G)p.r(U)p.r(G)p.r(A)p.r(A)p.d(G)p.d(T)}$$$RNA1{StrandType:ss}|RNA2{StrandType:as}$” had a normalised inhibition (eCFP-eYFP dual reporter) of 57.5%.
Then “RNA1{r(C)p.r(C)p.r(G)p.r(C)p.r(U)p.r(A)p.r(C)p.r(G)p.r(U)p.r(G)p.r(A)p.r(C)p.r(C)p.r(G)p.r(A)p.r(U)p.r(G)p.r(G)p.r(G)p.d(T)p.d(T)}|RNA2{r(C)p.r(C)p.r(C)p.r(A)p.r(U)p.r(C)p.r(G)p.r(G)p.r(U)p.r(C)p.r(A)p.r(C)p.r(G)p.r(U)p.r(A)p.r(G)p.r(C)p.r(G)p.r(G)p.d(G)p.d(T)}$$$RNA1{StrandType:ss}|RNA2{StrandType:as}$”, with 64.7%; and “RNA1{r(G)p.r(U)p.r(A)p.r(G)p.r(U)p.r(G)p.r(G)p.r(A)p.r(G)p.r(G)p.r(G)p.r(C)p.r(C)p.r(A)p.r(G)p.r(G)p.r(G)p.r(G)p.r(U)p.d(T)p.d(T)}|RNA2{r(A)p.r(C)p.r(C)p.r(C)p.r(C)p.r(U)p.r(G)p.r(G)p.r(C)p.r(C)p.r(C)p.r(U)p.r(C)p.r(C)p.r(A)p.r(C)p.r(U)p.r(A)p.r(C)p.d(A)p.d(C)}$$$RNA1{StrandType:ss}|RNA2{StrandType:as}$”, with 63.5%.
The figure for “RNA1{r(U)p.r(A)p.r(G)p.r(U)p.r(G)p.r(G)p.r(A)p.r(G)p.r(G)p.r(G)p.r(C)p.r(C)p.r(A)p.r(G)p.r(G)p.r(G)p.r(G)p.r(U)p.r(G)p.d(T)p.d(T)}|RNA2{r(C)p.r(A)p.r(C)p.r(C)p.r(C)p.r(C)p.r(U)p.r(G)p.r(G)p.r(C)p.r(C)p.r(C)p.r(U)p.r(C)p.r(C)p.r(A)p.r(C)p.r(U)p.r(A)p.d(C)p.d(A)}$$$RNA1{StrandType:ss}|RNA2{StrandType:as}$” is 72%; for “RNA1{r(G)p.r(C)p.r(C)p.r(G)p.r(C)p.r(G)p.r(C)p.r(G)p.r(C)p.r(G)p.r(C)p.r(G)p.r(C)p.r(A)p.r(A)p.r(G)p.r(G)p.r(U)p.r(G)p.d(T)p.d(T)}|RNA2{r(C)p.r(A)p.r(C)p.r(C)p.r(U)p.r(U)p.r(G)p.r(C)p.r(G)p.r(C)p.r(G)p.r(C)p.r(G)p.r(C)p.r(G)p.r(C)p.r(G)p.r(G)p.r(C)p.d(G)p.d(C)}$$$RNA1{StrandType:ss}|RNA2{StrandType:as}$” it is 57.1%.
Then “RNA1{r(G)p.r(A)p.r(G)p.r(G)p.r(G)p.r(C)p.r(C)p.r(A)p.r(G)p.r(G)p.r(G)p.r(G)p.r(U)p.r(G)p.r(G)p.r(C)p.r(A)p.r(G)p.r(G)p.d(T)p.d(T)}|RNA2{r(C)p.r(C)p.r(U)p.r(G)p.r(C)p.r(C)p.r(A)p.r(C)p.r(C)p.r(C)p.r(C)p.r(U)p.r(G)p.r(G)p.r(C)p.r(C)p.r(C)p.r(U)p.r(C)p.d(C)p.d(A)}$$$RNA1{StrandType:ss}|RNA2{StrandType:as}$”, with 71.1%; and “RNA1{r(U)p.r(C)p.r(A)p.r(A)p.r(G)p.r(G)p.r(A)p.r(C)p.r(U)p.r(U)p.r(C)p.r(G)p.r(G)p.r(G)p.r(A)p.r(C)p.r(C)p.r(G)p.r(A)p.d(T)p.d(T)}|RNA2{r(U)p.r(C)p.r(G)p.r(G)p.r(U)p.r(C)p.r(C)p.r(C)p.r(G)p.r(A)p.r(A)p.r(G)p.r(U)p.r(C)p.r(C)p.r(U)p.r(U)p.r(G)p.r(A)p.d(G)p.d(C)}$$$RNA1{StrandType:ss}|RNA2{StrandType:as}$”, with 61.3%; and “RNA1{r(G)p.r(G)p.r(A)p.r(C)p.r(C)p.r(G)p.r(A)p.r(G)p.r(G)p.r(C)p.r(C)p.r(G)p.r(C)p.r(U)p.r(C)p.r(G)p.r(G)p.r(C)p.r(C)p.d(T)p.d(T)}|RNA2{r(G)p.r(G)p.r(C)p.r(C)p.r(G)p.r(A)p.r(G)p.r(C)p.r(G)p.r(G)p.r(C)p.r(C)p.r(U)p.r(C)p.r(G)p.r(G)p.r(U)p.r(C)p.r(C)p.d(C)p.d(G)}$$$RNA1{StrandType:ss}|RNA2{StrandType:as}$”, with 50.7%.
Regarding “RNA1{r(U)p.r(C)p.r(A)p.r(A)p.r(G)p.r(A)p.r(A)p.r(U)p.r(G)p.r(A)p.r(U)p.r(G)p.r(C)p.r(C)p.r(A)p.r(C)p.r(G)p.r(G)p.r(A)p.d(T)p.d(T)}|RNA2{r(U)p.r(C)p.r(C)p.r(G)p.r(U)p.r(G)p.r(G)p.r(C)p.r(A)p.r(U)p.r(C)p.r(A)p.r(U)p.r(U)p.r(C)p.r(U)p.r(U)p.r(G)p.r(A)p.d(A)p.d(C)}$$$RNA1{StrandType:ss}|RNA2{StrandType:as}$”, the normalised inhibition (eCFP-eYFP dual reporter) came out at 68.7%.
The figure for “RNA1{r(C)p.r(G)p.r(C)p.r(G)p.r(A)p.r(G)p.r(C)p.r(U)p.r(G)p.r(C)p.r(A)p.r(C)p.r(U)p.r(U)p.r(C)p.r(A)p.r(C)p.r(C)p.r(C)p.d(T)p.d(T)}|RNA2{r(G)p.r(G)p.r(G)p.r(U)p.r(G)p.r(A)p.r(A)p.r(G)p.r(U)p.r(G)p.r(C)p.r(A)p.r(G)p.r(C)p.r(U)p.r(C)p.r(G)p.r(C)p.r(G)p.d(G)p.d(C)}$$$RNA1{StrandType:ss}|RNA2{StrandType:as}$” is 54.8%.
Take “RNA1{r(C)p.r(A)p.r(G)p.r(C)p.r(G)p.r(C)p.r(C)p.r(A)p.r(A)p.r(G)p.r(C)p.r(C)p.r(G)p.r(G)p.r(U)p.r(C)p.r(A)p.r(C)p.r(C)p.d(T)p.d(T)}|RNA2{r(G)p.r(G)p.r(U)p.r(G)p.r(A)p.r(C)p.r(C)p.r(G)p.r(G)p.r(C)p.r(U)p.r(U)p.r(G)p.r(G)p.r(C)p.r(G)p.r(C)p.r(U)p.r(G)p.d(C)p.d(G)}$$$RNA1{StrandType:ss}|RNA2{StrandType:as}$”: the normalised inhibition (eCFP-eYFP dual reporter) is 50.5%.
The figure for “RNA1{r(A)p.r(A)p.r(G)p.r(A)p.r(C)p.r(G)p.r(U)p.r(G)p.r(U)p.r(C)p.r(C)p.r(G)p.r(A)p.r(G)p.r(U)p.r(A)p.r(C)p.r(A)p.r(G)p.d(T)p.d(T)}|RNA2{r(C)p.r(U)p.r(G)p.r(U)p.r(A)p.r(C)p.r(U)p.r(C)p.r(G)p.r(G)p.r(A)p.r(C)p.r(A)p.r(C)p.r(G)p.r(U)p.r(C)p.r(U)p.r(U)p.d(T)p.d(G)}$$$RNA1{StrandType:ss}|RNA2{StrandType:as}$” is 87.1%; for “RNA1{r(G)p.r(C)p.r(G)p.r(A)p.r(C)p.r(C)p.r(U)p.r(A)p.r(G)p.r(U)p.r(G)p.r(G)p.r(G)p.r(C)p.r(C)p.r(C)p.r(G)p.r(A)p.r(C)p.d(T)p.d(T)}|RNA2{r(G)p.r(U)p.r(C)p.r(G)p.r(G)p.r(G)p.r(C)p.r(C)p.r(C)p.r(A)p.r(C)p.r(U)p.r(A)p.r(G)p.r(G)p.r(U)p.r(C)p.r(G)p.r(C)p.d(C)p.d(A)}$$$RNA1{StrandType:ss}|RNA2{StrandType:as}$” it is 66%.
